Patent publication US4057644A, “Active derivatives of methylamine in therapeutic compositions and methods of use” (priority 1976, dated 1977)
Read-outs that look alike come from different tables or passages of the source.

How the values were obtained:
[1] = test system: reserpine-induced catatonia; assay: Inhibition of reserpine-induced catatonia; format: in vivo, rat (male, OFA strain); settings: rat
Experimental: Ater sufficient doses of reserpine have been administered to the rat, a series of symptoms occur, more particularly ptosis, catatonia and a drop in central temperature. These symptoms are caused by the depletion of the intrangranular reserve pool of biogenetic amines at the synaptic terminals.
An oral dose of the compound to be studied in aqueous solution was administered to batches of 10 male rats of the OFA strain weighing about 150 to 200 g. Thirty minutes later a dose of 5 mg/kg of reserpine was given by intraperitoneal route. Three hours after the injection of reserpine, the animals were suspended by the four paws to a horizontally stretched wire fixed at 15 cm from the ground. The catatonic animals were those which maintained the position so given for at least 30 seconds. […] The maximum score was therefore 10 per batch. An identical trial was undertaken with control animals which received reserpine but none of the compounds being studied.

[2] = test system: neuroleptic-induced catatonia (prochlorperazine); assay: Suppression of neuroleptic-induced catatonia (curative treatment); format: in vivo, rat (male, OFA strain); settings: 5 mg/kg, versus amantadine 80 mg/kg
Experimental: Fifty-five minutes later, an oral dose in aqueous solution of the compound to be studied was administered to all the animals with the exception of the control group. The progress of the catatonia was noted following the same scale as that used in the tests described above.

catalepsy = assay: Inhibition of prochlorperazine-induced catalepsy (crossing of homolateral paws); format: in vivo; settings: Rattus norvegicus, po, 3 h, read-out: dose giving complete inhibition of the catalepsy
Excerpt: […]. These trails involved catalepsy as evidenced by the crossing of the animal's homolateral paws.

[3] = J. Amer. Chem. Soc., 71, 3352 (1949); cited from earlier work
[4] = J. Amer. Chem. Soc., 71, 3352 (1949); cited from earlier work; remark: listed apart in the source
[5] = Anti-cholinergic (cholinolytic) activity
[6] = test system: neuroleptic-induced catatonia (prochlorperazine); assay: Inhibition of neuroleptic-induced catatonia; format: in vivo, rat (male, OFA strain); settings: rat, oral; versus amantadine
Experimental: The blocking of dopaminergic receptors by neuroleptics in the extra-pyramidal system induces catatonia in the rat. Catatonia is differentiated from sedative properties by means of the test used hereabove for reserpine-induced catatonia. The same system of scoring was also employed in the present case.
An oral dose of the compound to be studied in aqueous solution was administered to batches of 10 male rats of the OFA strain weighing about 150 to 200 g.
Three hours after the injection of this latter compound, catatonia was measured. An identical trial was also carried out with control animals which received prochlorperazine but none of the compounds under study.

[7] = Spasmolytic activity in vivo; settings: at doses well below the toxic dose
[8] = test system: norepinephrine effects on arterial pressure and nictitating membrane; assay: Influence on peripheral noradrenergic phenomena (arterial pressure, nictitating membrane); settings: cat; for Contractile reaction of the nictitating membrane with electric stimulation / Contractile reaction of the nictitating membrane without electric stimulation / Increase in arterial pressure after injection of norepinephrine: i.v.
Experimental: (§1) A cat, anaesthetized with pentobarbital, received a sufficient dose of norepinephrine to increase arterial pressure but not sufficient to cause contraction of the nictitating membrane. Arterial pressure was measured at the carotid immediately after administration of the dose of norepinephrine.

[9] = test system: reserpine-induced catatonia; assay: Suppression of reserpine-induced catatonia (curative treatment); format: in vivo, rat (male, OFA strain); settings: 2.5 and 5 mg/kg oral, versus amantadine 80 mg/kg
Experimental: Batches of 5 male rats of the OFA strain, weighing 150 to 200 g were given 5 mg/kg of reserpine by intraperitoneal route. One hour and 45 minutes later, namely when the animals were in state of catatonia, an aqueous dose of the compound to be studied was administered by oral route to all the animals with the exception of the control group.
The progress of the catatonia was then noted following the scale used in the tests described hereabove.
The maximum score was thus 5 per batch which means that all the animals of the batch were considered to be still in a state of catatonia.

[10] = test system: tremorine-induced cholinergic effects; assay: Anti-tremorine test; format: in vivo, mice (male, OF1 strain); set-up: key to central cholinergic effects score (normal and provoked tremor): 0: no action; 1: slight action; 2: average action; 3: strong action; 4: very strong action; settings: for central cholinergic effects score (normal and provoked tremor): 20, 30 and 40 minutes after tremorine, printed as identical results; for antitremorine properties: mice, oral
Experimental: When injected into mice, tremorine produces peripheral effects i.e. weeping, sweating, salivation and diarrhoea and central effects i.e. tremor and akinesia. Such effects are due to an increase in the amount of intracerebral acetylcholine and serotonine.
Male mice of the OF1 strain weighing about 22 g were divided into batches of 10. […] Thirty minutes later a dose of 10 mg/kg of tremorine was injected by intraperitoneal route and, at different times after this injection, note was taken of the cholinergic effects on each animal in accordance with the following scale: […]

[11] = test system: isolated duodenum of the rat; assay: MAGNUS test, inhibition of acetylcholine spasm in vitro (cholinolytic/spasmolytic)
Excerpt: This test consists in determining the dose of acetylcholine which, when added to the bath, provokes spasm of the isolated duodenum of the rat. The next step consists in determining the dose of the compound under study which, when added to the bath 30 seconds before the acetylcholine, reduces the spasm.

[12] = test system: norepinephrine effects on arterial pressure and nictitating membrane; settings: in vivo, iv
Experimental: as §1

electrocardiogram = assay: Electrocardiogram; format: in vivo; settings: dog, injected, 5 mg/kg

CCCC(N)(CCC)CCC [Compound 1]
degree of activity (pharmacological trials) ([1]; in vivo): marked degree of activity | dose of equal activity compared with amantadine (reserpine-induced catatonia) ([1]; oral, versus amantadine): twenty times inferior | rapidity of action against neuroleptic-induced catatonia [2]: more rapidly | ED100 (catalepsy): 5 mg/kg | toxicity versus the corresponding trialkylethylamines [3]: more toxic | spasmolytic activity versus the corresponding trialkylethylamines [4]: less spasmolytic | anti-cholinergic (cholinolytic) activity [5]: devoid of anti-cholinergic activity | activity compared with amantadine (neuroleptic-induced catatonia) [6]: twenty times more active | spasmolytic activity in vivo [7]: non-existent | potentiation of endogenous norepinephrine [8]: does not potentiate | potentiation of exogenous norepinephrine / peripheral adrenergic effects [8]: does not potentiate | Contractile reaction of the nictitating membrane with electric stimulation ([8]; cumulative dose 0.1 mg/kg): 15 mm | Contractile reaction of the nictitating membrane without electric stimulation ([8]; cumulative dose 0.1 mg/kg): 0 mm | Increase in arterial pressure after injection of norepinephrine ([8]; cumulative dose 0.1 mg/kg): 18 mm Hg | Contractile reaction of the nictitating membrane with electric stimulation ([8]; cumulative dose 1 mg/kg): 16 mm | Contractile reaction of the nictitating membrane without electric stimulation ([8]; cumulative dose 1 mg/kg): 0 mm | Increase in arterial pressure after injection of norepinephrine ([8]; cumulative dose 1 mg/kg): 25 mm Hg | Contractile reaction of the nictitating membrane with electric stimulation ([8]; cumulative dose 3 mg/kg): 17 mm | Contractile reaction of the nictitating membrane without electric stimulation ([8]; cumulative dose 3 mg/kg): 0 mm | Increase in arterial pressure after injection of norepinephrine ([8]; cumulative dose 3 mg/kg): 29 mm Hg | Contractile reaction of the nictitating membrane with electric stimulation ([8]; cumulative dose 5 mg/kg): 16 mm | Contractile reaction of the nictitating membrane without electric stimulation ([8]; cumulative dose 5 mg/kg): 0 mm | Increase in arterial pressure after injection of norepinephrine ([8]; cumulative dose 5 mg/kg): 25 mm Hg | Contractile reaction of the nictitating membrane with electric stimulation ([8]; cumulative dose 10 mg/kg): 12 mm | Contractile reaction of the nictitating membrane without electric stimulation ([8]; cumulative dose 10 mg/kg): 0 mm | Increase in arterial pressure after injection of norepinephrine ([8]; cumulative dose 10 mg/kg): 22 mm Hg | potentiation of exogenous norepinephrine / peripheral adrenergic effects ([8]; listed as preferred compound of the invention): does not potentiate the peripheral effects of norepinephrine | rapidity of suppression of reserpine-induced catatonia [9]: more rapidly | central cholinergic effects score (normal and provoked tremor) ([10]; 5 mg/kg oral): 4 | antitremorine properties [10]: devoid of antitremorine properties | spasmolytic / cholinolytic activity in vitro [11]: virtually non-existent | spasmolytic / cholinolytic activity in vitro ([11]; listed as tri-n-propylmethylamine): very weak, in fact practically non-existent

NC12CC3CC(CC(C3)C1)C2 [Amantadine, 1-amino-adamantane]
dose from which exogenous norepinephrine is potentiated ([12]; cat): ≥ 1 mg/kg | dose from which ganglioplegic properties are shown ([12]; cat): ≥ 5 mg/kg | Contractile reaction of the nictitating membrane with electric stimulation ([12]; 0.1 mg/kg): 20 mm | Contractile reaction of the nictitating membrane without electric stimulation ([12]; 0.1 mg/kg): 0 mm | Increase in arterial pressure after injection of norepinephrine ([12]; 0.1 mg/kg): 29 mm Hg | Contractile reaction of the nictitating membrane with electric stimulation ([12]; 1 mg/kg): 20 mm | Contractile reaction of the nictitating membrane without electric stimulation ([12]; 1 mg/kg): 3 mm | Increase in arterial pressure after injection of norepinephrine ([12]; 1 mg/kg): 35 mm Hg | Contractile reaction of the nictitating membrane with electric stimulation ([12]; 3 mg/kg): 16 mm | Contractile reaction of the nictitating membrane without electric stimulation ([12]; 3 mg/kg): 4.4 mm | Increase in arterial pressure after injection of norepinephrine ([12]; 3 mg/kg): 35 mm Hg | Contractile reaction of the nictitating membrane with electric stimulation ([12]; 5 mg/kg): 10 mm | Contractile reaction of the nictitating membrane without electric stimulation ([12]; 5 mg/kg): 5.9 mm | Increase in arterial pressure after injection of norepinephrine ([12]; 5 mg/kg): 59 mm Hg | Contractile reaction of the nictitating membrane with electric stimulation ([12]; 10 mg/kg): 4 mm | Contractile reaction of the nictitating membrane without electric stimulation ([12]; 10 mg/kg): 7.5 mm | Increase in arterial pressure after injection of norepinephrine ([12]; 10 mg/kg): 57 mm Hg | own effect on contractile reactions of the nictitating membrane [8]: stimulates the contractile reactions of the nictitating membrane | potentiation of exogenous norepinephrine / peripheral adrenergic effects [8]: potentiates the peripheral adrenergic effects | potentiation of the effects of the electric stimulation [8]: does not potentiate | effect on the electrocardiogram / cardiac rhythm (electrocardiogram): provokes cardiac arrhythmia due to ventricular extrasystoles | central cholinergic effects score (normal and provoked tremor) ([10]; 40 mg/kg oral): 4 | antitremorine properties [10]: devoid of antitremorine properties
